# Measurements: article PMC6314593, “Characterization of novel lignocellulose-degrading enzymes from the porcupine microbiome using synthetic metagenomics” (PLoS ONE, 2019)
# Test system: T1, endo-1,4-β-xylanase
# T1 construct: gene GH10 xylanase; codon-optimised synthetic gene in pET26b(+); N-terminal PelB leader, C-terminal 6xHis, tags kept; ~81 kDa; E. coli BL21(DE3)
# Experiment: fluorescence of released CMU (ex […] nm, em […] nm), Lineweaver-Burk
# Assay type: biochemical, uncultured bacterium
# Settings: pH 7, 37°C, 50 mM sodium phosphate
smiles,measurement,value
"Cc1cc(=O)oc2cc(O[C@@H]3OC[C@@H](O[C@@H]4OC[C@@H](O)[C@H](O)[C@H]4O)[C@H](O)[C@H]3O)c(Cl)cc12 [CMU-X2, 6-chloro-4-methylumbelliferyl xylobioside]",Km,32 ± 4.72 µM
